Biological target: T1, PHKG2 (Homo sapiens, UniProt P15735)
T1 construct: purchased Thermo Fisher Scientific (Life Technologies) SelectScreen
Assay: SelectScreen Z'LYTE
Format: biochemical
Procedure, shortened: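 SelectScreen broad panel; activity (Z'LYTE, Adapta) plus binding formats. ATP: Km app for CSF1R Z'LYTE; 10 for CAMK1 Adapta. Readout = % per kinase.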

T1 sequence (P15735 whole entry): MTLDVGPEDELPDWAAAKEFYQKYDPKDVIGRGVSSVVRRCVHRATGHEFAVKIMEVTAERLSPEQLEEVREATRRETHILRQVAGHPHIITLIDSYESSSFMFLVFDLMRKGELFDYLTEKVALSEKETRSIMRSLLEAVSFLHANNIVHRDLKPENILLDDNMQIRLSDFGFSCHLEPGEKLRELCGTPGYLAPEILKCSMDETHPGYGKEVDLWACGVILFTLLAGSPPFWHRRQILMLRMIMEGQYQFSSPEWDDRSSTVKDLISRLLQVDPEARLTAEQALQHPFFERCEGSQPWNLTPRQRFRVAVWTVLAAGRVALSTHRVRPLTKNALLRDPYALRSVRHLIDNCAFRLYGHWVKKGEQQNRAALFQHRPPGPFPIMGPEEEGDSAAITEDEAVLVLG

SMILES: CN(C(=O)CN1CCOCC1)c1ccc2sc3c(-c4cccc5c(=O)cc(N6CC7CCC(C6)O7)oc45)cccc3c2c1 [NU5455]
- inhibition at 1 µM: -3.6%

— publication PMC6934184, “Selective DNA-PKcs inhibition extends the therapeutic index of localized radiotherapy and chemotherapy” (The Journal of Clinical Investigation, 2019)
